Source: ChEMBL document CHEMBL1201862, “PubChem BioAssay data set” (2004)
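A five-concentration, 48-hour dose response in 96-well plates underlies each endpoint, interpolated linearly between surrounding concentrations. GI50 marks 50% less growth.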 Activity calls are given as the source filed them. Rule as the data show it: active = GI50 up to about 1.1 µM and inactive = higher. Where a SMILES comes first, the peptide text is derived from it. The star is where a group is joined. Boc = CC(C)(C)OC(=O)*

What was measured:
Assay in all cases: NCI tumour cell line growth inhibition, 48 h
[1] = tested on: HT-29
[2] = tested on: SK-MEL-5
[3] = tested on: U-251
[4] = tested on: UO-31
[5] = tested on: OVCAR-3
[6] = tested on: OVCAR-8
[7] = tested on: SN12C
[8] = tested on: RXF 393
[9] = tested on: A549
[10] = tested on: T47D
[11] = tested on: NCI-H522
[12] = tested on: NCI/ADR-RES
[13] = tested on: EKVX
[14] = tested on: OVCAR-5
[15] = tested on: MOLT-4
[16] = tested on: M14
[17] = tested on: SF-295
[18] = tested on: MDA-MB-231
[19] = tested on: NCI-H460
[20] = tested on: SR

Row | SMILES | GI50 [1] | GI50 [2] | GI50 [3] | GI50 [4] | GI50 [5] | GI50 [6] | GI50 [7] | GI50 [8] | GI50 [9] | GI50 [10] | GI50 [11] | GI50 [12] | GI50 [13] | GI50 [14] | GI50 [15] | GI50 [16] | GI50 [17] | GI50 [18] | GI50 [19] | GI50 [20]
1 | CSc1nc2ccccc2c(=O)n1/N=C1\C(=O)N(CN2CCOCC2)c2ccc(Cl)cc21 | 23.7 µM (inactive) | 38.7 µM (inactive) | 32.5 µM (inactive) | 28.1 µM (inactive) | 54.5 µM (inactive) | 39.6 µM (inactive) | 48.2 µM (inactive) | 18.1 µM (inactive) | 35.4 µM (inactive) | 16.5 µM (inactive) | 31.1 µM (inactive) | > 100 µM (inactive) | 2.6 µM (inactive) | 26 µM (inactive) | 10.9 µM (inactive) | 26.5 µM (inactive) | 46.1 µM (inactive) | 47.4 µM (inactive) | 15.2 µM (inactive) | 
2 | CC(O)/C=C/C1OC(=O)CC1Nc1ccc(C=O)cc1 (stereo not drawn) | 41.7 µM (inactive) | 16.6 µM (inactive) | 77.6 µM (inactive) | 51.2 µM (inactive) | 81.3 µM (inactive) | > 100 µM (inactive) | > 100 µM (inactive) | > 100 µM (inactive) | > 100 µM (inactive) | 60.7 µM (inactive) |  | > 100 µM (inactive) | > 100 µM (inactive) | > 100 µM (inactive) | 10.8 µM (inactive) | 22.3 µM (inactive) | 28 µM (inactive) | > 100 µM (inactive) | 11.2 µM (inactive) | 23.1 µM (inactive)
3 | CC1SCCc2nc3ccccc3n21 (stereo not drawn) | > 100 µM (inactive) | > 100 µM (inactive) | > 100 µM (inactive) | > 100 µM (inactive) | > 100 µM (inactive) | > 100 µM (inactive) | > 100 µM (inactive) | > 100 µM (inactive) | > 100 µM (inactive) | > 100 µM (inactive) |  | > 100 µM (inactive) | > 100 µM (inactive) | > 100 µM (inactive) | > 100 µM (inactive) | > 100 µM (inactive) | > 100 µM (inactive) | > 100 µM (inactive) | > 100 µM (inactive) | > 100 µM (inactive)
4 | COc1cccc(CCCNC(=O)Cc2ccccc2CO)c1 | > 100 µM (inactive) | > 100 µM (inactive) | > 100 µM (inactive) | > 100 µM (inactive) | > 100 µM (inactive) | > 100 µM (inactive) | > 100 µM (inactive) |  | > 100 µM (inactive) | 38.1 µM (inactive) |  | > 100 µM (inactive) | > 100 µM (inactive) | > 100 µM (inactive) | > 100 µM (inactive) | > 100 µM (inactive) | > 100 µM (inactive) | > 100 µM (inactive) | > 100 µM (inactive) | > 100 µM (inactive)
5 | Cc1ccc(S(=O)(=O)c2ccc([N+](=O)[O-])o2)cc1 | 1.7 µM (inactive) | 11 µM (inactive) | 5.48 µM (inactive) | 1.44 µM (inactive) | 1.76 µM (inactive) | 0.906 µM (active) | 7.73 µM (inactive) | 1.62 µM (inactive) | 8.81 µM (inactive) | 2.36 µM (inactive) | 0.185 µM (active) | 2.25 µM (inactive) | 3.24 µM (inactive) | 2.01 µM (inactive) | 0.337 µM (active) | 1.83 µM (inactive) | 19.8 µM (inactive) | 2.21 µM (inactive) | 14.1 µM (inactive) | 
6 | O=c1[nH]c(=O)n([C@H]2C[C@H](O)[C@@H](CO)O2)cc1Br [BROXURIDINE] | > 100 µM (inactive) | > 100 µM (inactive) | > 100 µM (inactive) | > 100 µM (inactive) | 25.9 µM (inactive) | > 100 µM (inactive) | > 100 µM (inactive) | > 100 µM (inactive) | > 100 µM (inactive) | > 100 µM (inactive) | > 78.3 µM (inactive) | > 100 µM (inactive) | > 100 µM (inactive) | > 100 µM (inactive) | > 100 µM (inactive) | > 86.7 µM (inactive) | > 100 µM (inactive) | > 100 µM (inactive) | > 100 µM (inactive) | 
7 | CSc1ccc(/C=C2\N=C(c3ccccc3)N(c3nc4cc(Cl)c(F)cc4s3)C2=O)cc1 | 49.4 µM (inactive) | 28.4 µM (inactive) | 19.6 µM (inactive) | 55.8 µM (inactive) | 19.8 µM (inactive) | 20 µM (inactive) | 36.7 µM (inactive) | 19.1 µM (inactive) | 33.7 µM (inactive) | 26.1 µM (inactive) |  | 32.2 µM (inactive) | 28.3 µM (inactive) | 71.3 µM (inactive) | 29.6 µM (inactive) | 58.3 µM (inactive) | 51.2 µM (inactive) | 30.8 µM (inactive) | 57.3 µM (inactive) | 37.4 µM (inactive)
8 | CCCCCCSc1nc(COC(=O)NC)c(COC(=O)NC)n1C | > 100 µM (inactive) | > 100 µM (inactive) | > 100 µM (inactive) | > 100 µM (inactive) | > 100 µM (inactive) | > 100 µM (inactive) | > 100 µM (inactive) |  | > 100 µM (inactive) | > 100 µM (inactive) | > 100 µM (inactive) | > 100 µM (inactive) | > 100 µM (inactive) | > 100 µM (inactive) | > 100 µM (inactive) | > 100 µM (inactive) | > 100 µM (inactive) | > 100 µM (inactive) | > 100 µM (inactive) | > 100 µM (inactive)
9 | COC(=O)CNC(=O)C(Cc1ccccc1)NC(=O)C(CCSC)NC(=O)C(Cc1ccc(O)cc1)NC(=O)OC(C)(C)C (stereo not drawn) (Boc-YMFG-OMe; configuration not given here) | 33 µM (inactive) | > 100 µM (inactive) | 41.6 µM (inactive) | > 100 µM (inactive) | 16.9 µM (inactive) | 39.9 µM (inactive) | 45.3 µM (inactive) | 47.6 µM (inactive) | > 100 µM (inactive) | 32.4 µM (inactive) | 19.4 µM (inactive) | > 100 µM (inactive) |  | > 100 µM (inactive) | 17.5 µM (inactive) | > 100 µM (inactive) | > 100 µM (inactive) | 24.5 µM (inactive) | > 100 µM (inactive) | 
10 | C=C1[C@H](OC(=O)C(C)C)[C@@H](OC(C)=O)[C@@H](OC(C)=O)C(C)(C)[C@@H]2O[C@H]2[C@@H](C)C(=O)[C@@]2(OC(C)=O)C[C@@](C)(OC(C)=O)[C@H](OC(C)=O)[C@@H]2[C@H]1OC(C)=O | > 100 µM (inactive) | > 100 µM (inactive) | > 100 µM (inactive) | 61.9 µM (inactive) | > 100 µM (inactive) | > 100 µM (inactive) | > 100 µM (inactive) |  | > 100 µM (inactive) | > 100 µM (inactive) | > 100 µM (inactive) | > 100 µM (inactive) | > 100 µM (inactive) | > 100 µM (inactive) | > 100 µM (inactive) | > 100 µM (inactive) | > 100 µM (inactive) | > 100 µM (inactive) | > 100 µM (inactive) | > 100 µM (inactive)
11 | CC(=O)Nc1ccc(-c2nc3ccccc3s2)cc1 | 73.1 µM (inactive) | > 100 µM (inactive) | 27.5 µM (inactive) | 45.5 µM (inactive) |  | 35.4 µM (inactive) |  | 23.6 µM (inactive) |  | 31.1 µM (inactive) |  | 28.7 µM (inactive) | 85.1 µM (inactive) |  | 20.2 µM (inactive) | 63.1 µM (inactive) | 29.6 µM (inactive) | 26.8 µM (inactive) | 36.1 µM (inactive) | 45.6 µM (inactive)
12 | COC(=O)[C@@H]1[C@H]2CC[C@]3(C)[C@@H](OC(C)=O)CC[C@H]3[C@@H]2CC[C@H]1C1(C)SCCS1 | 15 µM (inactive) | 8.77 µM (inactive) | 23.6 µM (inactive) | 38.6 µM (inactive) | 33.1 µM (inactive) | 25 µM (inactive) | 18.5 µM (inactive) | 20.5 µM (inactive) | 25.1 µM (inactive) | 20.4 µM (inactive) | 30.5 µM (inactive) | 20.4 µM (inactive) | 25.1 µM (inactive) | 22.8 µM (inactive) | 24.8 µM (inactive) | 21.5 µM (inactive) | 24.8 µM (inactive) | 17.1 µM (inactive) | 29.3 µM (inactive) | 
13 | CC(=O)O[C@H]1[C@@H]2OC(=O)[C@@](O)(CC3CCCO3)[C@@H]2CC(=O)[C@](C)(O)CC/C=C(\C)CCC[C@@H]1C (stereo partly drawn) |  | 43.6 µM (inactive) | 69.8 µM (inactive) | 61.8 µM (inactive) | 63.2 µM (inactive) | 35.6 µM (inactive) | 30.4 µM (inactive) | 20 µM (inactive) | 40.6 µM (inactive) | 24.8 µM (inactive) | 25.8 µM (inactive) | 57.9 µM (inactive) | 52.8 µM (inactive) | > 100 µM (inactive) |  | 40.4 µM (inactive) | 77.3 µM (inactive) | 20.7 µM (inactive) | > 100 µM (inactive) | 
14 | Cc1ccc2c(c1)-c1c(C#N)c(N)nc(-c3ccc(Cl)cc3)c1CCS2(=O)=O | 3.61 µM (inactive) | 4.32 µM (inactive) | 7.14 µM (inactive) | 5.74 µM (inactive) | 3.94 µM (inactive) | 14.8 µM (inactive) | 10.9 µM (inactive) |  | 5.31 µM (inactive) | 17.3 µM (inactive) | 2.14 µM (inactive) | 4.48 µM (inactive) | 20.8 µM (inactive) | 49.9 µM (inactive) | 4.99 µM (inactive) | 5.21 µM (inactive) | 4.21 µM (inactive) | 12.3 µM (inactive) | 3.85 µM (inactive) | 1.87 µM (inactive)
